Data as given in patent publication US4129737A, “Process for the preparation of an 8-alkyl-5-oxo-5,8-dihydro-pyrido(2,3-d)pyrimidine-6-carboxylic acid” (priority 1972, dated 1978).
Converted amounts (≈) assume the structure as drawn.

Experiments:
Test in all cases: Average MIC, solid medium (nutrient agar) dilution method
[1] = test system: Esch 111 B4; assay type: cell-based; conditions: 18 h, average of five determinations, read-out: minimum inhibitory concentration, average
[2] = test system: Salm. typhi 0901; assay type: cell-based; conditions: Salmonella enterica, 18 h, read-out: minimum inhibitory concentration, average
[3] = test system: Sh. sonnei I.P.S.; assay type: cell-based; conditions: Shigella sonnei, 18 h, average of five determinations, read-out: minimum inhibitory concentration, average
[4] = test system: Staphylococcus 209P; conditions: 18 h, read-out: minimum inhibitory concentration, average
[5] = test system: Staphylococcus 9144; conditions: Staphylococcus, 9144, 18 h, read-out: minimum inhibitory concentration, average
[6] = test system: Staphylococcus SIM; conditions: 18 h, read-out: minimum inhibitory concentration, average
[7] = test system: Streptococcus A561; conditions: A561, 18 h, read-out: minimum inhibitory concentration, average
[8] = test system: Streptococcus DM19; conditions: DM19, 18 h, read-out: minimum inhibitory concentration, average
[9] = test system: B. subtilis 6633; conditions: Bacillus subtilis, 6633, 18 h, read-out: minimum inhibitory concentration, average
[10] = test system: Bord. bronch. 4617; conditions: 18 h, read-out: minimum inhibitory concentration, average
[11] = test system: Ps. aeruginosa A22; conditions: Pseudomonas aeruginosa, A22, 18 h, read-out: minimum inhibitory concentration, average
[12] = test system: Ps. aeruginosa 72-345; conditions: Pseudomonas aeruginosa, 72345, 18 h, read-out: minimum inhibitory concentration, average
[13] = test system: Esch. coli. 95 I.S.M.; conditions: Escherichia coli, 18 h, read-out: minimum inhibitory concentration, average
[14] = test system: Esch. coli. 54-127 OMS; conditions: Escherichia coli, 18 h, read-out: minimum inhibitory concentration, average
[15] = test system: Esch. coli. LRB 45; conditions: Escherichia coli, 18 h, read-out: minimum inhibitory concentration, average
[16] = test system: Esch. coli. LRB 67; conditions: Escherichia coli, 18 h, read-out: minimum inhibitory concentration, average
[17] = test system: Esch. coli. Cho; conditions: Escherichia coli, 18 h, read-out: minimum inhibitory concentration, average
[18] = test system: Klebs. pneumoniae 10.031; conditions: Klebsiella pneumoniae, 10.031, 18 h, read-out: minimum inhibitory concentration, average
[19] = test system: S. enteritidis DANYZ; conditions: Salmonella enterica, 18 h, read-out: minimum inhibitory concentration, average
[20] = test system: S. oranienburg 10-66; conditions: Salmonella enterica, 1066, 18 h, read-out: minimum inhibitory concentration, average
[21] = test system: Arizona 6211; conditions: 18 h, read-out: minimum inhibitory concentration, average
[22] = test system: Providencia 0223; conditions: Providencia, 0223, 18 h, read-out: minimum inhibitory concentration, average
[23] = test system: Pr. vulgaris 12-53; conditions: Proteus vulgaris, 1253, 18 h, read-out: minimum inhibitory concentration, average
[24] = test system: Pr. mirabilis Nig; conditions: Proteus mirabilis, 18 h, read-out: minimum inhibitory concentration, average
[25] = test system: Pr. morganii A 236; conditions: Morganella morganii, A236, 18 h, read-out: minimum inhibitory concentration, average

Row | Structure (SMILES) | MIC [1] [µg/mL] | MIC [2] [µg/mL] | MIC [3] [µg/mL] | MIC [4] [µg/mL] | MIC [5] [µg/mL] | MIC [6] [µg/mL] | MIC [7] [µg/mL] | MIC [8] [µg/mL] | MIC [9] [µg/mL] | MIC [10] [µg/mL] | MIC [11] [µg/mL] | MIC [12] [µg/mL] | MIC [13] [µg/mL] | MIC [14] [µg/mL] | MIC [15] [µg/mL] | MIC [16] [µg/mL] | MIC [17] [µg/mL] | MIC [18] [µg/mL] | MIC [19] [µg/mL] | MIC [20] [µg/mL] | also measured
1 | CCn1cc(C(=O)O)c(=O)c2cnc(N3CCCC3)nc21 [Example III, 2-Pyrrolidino-5-oxo-8-ethyl-5,8-dihydro-pyrido(2,3-d)-pyrimidine-6-carboxylic acid] | 15.6 (≈ 54.2 µM) | 23.7 (≈ 82.3 µM) | 10.6 (≈ 36.8 µM) | 3.42 (≈ 11.9 µM) | 4.04 (≈ 14 µM) | 15 (≈ 52 µM) | 2.82 (≈ 9.78 µM) | 100 (≈ 347 µM) | 1 (≈ 3.47 µM) | 80 (≈ 277 µM) | 100 (≈ 347 µM) | 75 (≈ 260 µM) | 32.5 (≈ 113 µM) | 15.6 (≈ 54.2 µM) | 15.6 (≈ 54.2 µM) | 12.5 (≈ 43.4 µM) | 32.5 (≈ 113 µM) | 1.2 (≈ 4.16 µM) | 21.9 (≈ 76 µM) | 100 (≈ 347 µM) | MIC [21]: 27.5 µg/mL (≈ 95.4 µM); MIC [22]: 100 µg/mL (≈ 347 µM); MIC [23]: 5.6 µg/mL (≈ 19.4 µM); MIC [24]: 30 µg/mL (≈ 104 µM); MIC [25]: 0.56 µg/mL (≈ 1.94 µM)
2 | CCn1cc(C(=O)O)c(=O)c2ccc(C)nc21 [Nalidixic acid, nalidixic acid, reference compound] | 2.34 (≈ 10.1 µM) | 2.7 (≈ 11.6 µM) | 1.58 (≈ 6.8 µM) | 16.2 (≈ 69.9 µM) | 25 (≈ 108 µM) | 56.2 (≈ 242 µM) | 18.7 (≈ 80.7 µM) | 100 (≈ 431 µM) | 72 (≈ 310 µM) | 25 (≈ 108 µM) | 60 (≈ 258 µM) | 60 (≈ 258 µM) | 21.9 (≈ 94.2 µM) | 2.15 (≈ 9.26 µM) | 3.1 (≈ 13.3 µM) | 2.7 (≈ 11.6 µM) | 4.04 (≈ 17.4 µM) | 1.4 (≈ 6.03 µM) | 2.75 (≈ 11.8 µM) | 100 (≈ 431 µM) | MIC [21]: 3.12 µg/mL (≈ 13.4 µM); MIC [22]: 100 µg/mL (≈ 431 µM); MIC [23]: 0.88 µg/mL (≈ 3.79 µM); MIC [24]: 3.42 µg/mL (≈ 14.7 µM); MIC [25]: 0.36 µg/mL (≈ 1.55 µM)
